Experimental data reported in PMC6498869, “Structural and mutational analyses of psychrophilic and mesophilic adenylate kinases highlight the role of hydrophobic interactions in protein thermal stability” (Structural Dynamics, 2019).

Experiments:
Assay in all cases: ATP formation, hexokinase/G6PDH end-point assay
Type in all cases: biochemical
Conditions in all cases: 2.5 mM ADP, 2 mM MgCl2, 100 mM KCl, HEPES pH 7.4, 5-65 °C
[1] = target: T1, AKp (Sporosarcina globispora, UniProt P84139)
T1 construct: gene adk; full length (residues 1-217), pET30a, E. coli BL21 (DE3); Affi-Gel blue and size exclusion, no tag mentioned
T1 sequence (P84139 whole entry, the tested form may be a part): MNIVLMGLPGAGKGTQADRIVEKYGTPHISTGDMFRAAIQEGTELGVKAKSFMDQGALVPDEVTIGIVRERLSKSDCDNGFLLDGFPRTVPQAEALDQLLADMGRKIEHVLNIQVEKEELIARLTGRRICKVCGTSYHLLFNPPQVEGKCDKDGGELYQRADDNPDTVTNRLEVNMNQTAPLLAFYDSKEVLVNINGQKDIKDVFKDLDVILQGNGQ

[2] = target: T2, AKp (Sporosarcina globispora, UniProt P84139, T26I)
T2 construct: gene adk; full length (residues 1-217), pET30a, E. coli BL21 (DE3); Affi-Gel blue and size exclusion, no tag mentioned
T2 sequence (P84139 whole entry T26I, the tested form may be a part): as the sequence (P84139 whole entry, the tested form may be a part) above, with T26I counted along it

[3] = target: T3, AKm (Bacillus subtilis, UniProt P16304)
T3 construct: gene adk; full length (residues 1-217), pET11a, E. coli BL21 (DE3); Affi-Gel blue and size exclusion, no tag mentioned
T3 sequence (P16304 whole entry, the tested form may be a part): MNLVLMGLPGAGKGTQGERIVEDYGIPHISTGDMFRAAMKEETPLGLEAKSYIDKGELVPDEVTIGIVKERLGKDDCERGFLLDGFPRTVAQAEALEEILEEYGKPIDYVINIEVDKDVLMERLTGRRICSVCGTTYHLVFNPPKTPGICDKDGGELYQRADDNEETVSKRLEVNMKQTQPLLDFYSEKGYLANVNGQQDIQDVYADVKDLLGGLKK

[4] = target: T4, AKm (Bacillus subtilis, UniProt P16304, I26T)
T4 construct: gene adk; full length (residues 1-217), pET11a, E. coli BL21 (DE3); Affi-Gel blue and size exclusion, no tag mentioned
T4 sequence (P16304 whole entry I26T, the tested form may be a part): as the sequence (P16304 whole entry, the tested form may be a part) above, with I26T counted along it

Compound: Nc1ncnc2c1ncn2[C@@H]1O[C@H](COP(=O)(O)OP(=O)(O)O)[C@@H](O)[C@H]1O [ADP]
- ATP formation, hexokinase/G6PDH end-point assay [1]: we determined the temperature dependence of the activities of WT AKp and its T26I mutant
- ATP formation, hexokinase/G6PDH end-point assay [2]: we determined the temperature dependence of the activities of WT AKp and its T26I mutant
- ATP formation, hexokinase/G6PDH end-point assay [3]: The activity assays of WT AKm and the I26T mutant also showed consistent results
- ATP formation, hexokinase/G6PDH end-point assay [4]: The activity assays of WT AKm and the I26T mutant also showed consistent results
